{"source": "patent US20090137664A1", "about": "“SAURURUS CERNUUS COMPOUNDS THAT INHIBIT CELLULAR RESPONSES TO HYPOXIA” (priority 2003, published 2009)", "assay_type_in_all_cases": "cell-based", "key": {"RXF 393": {"system": "RXF 393", "assay": "NCI in vitro cell line screen (SRB), Renal Cancer RXF 393", "description": "(§1) For exemplary purposes, an embodiment of the present invention was tested for activity with respect to certain cancer cell lines. The following Tables show results from in vitro 60-cell line antitumor testing from the US National Cancer Institute Developmental Therapeutics Program (NCI-DTP) on compound 2. The testing was in connection with the NCI's In Vitro Cell Line Screening Project (IVCLSP). Detailed information regarding the experiments and their interpretation is available from the NCI."}, "MDA-MB-435": {"system": "MDA-MB-435", "assay": "NCI in vitro cell line screen (SRB), Breast Cancer MDA-MB-435", "description": "as §1"}, "UACC-62": {"system": "UACC-62", "assay": "NCI in vitro cell line screen (SRB), Melanoma UACC-62", "description": "as §1"}, "HL-60(TB)": {"system": "HL-60(TB)", "assay": "NCI in vitro cell line screen (SRB), Leukemia HL-60(TB)", "description": "as §1"}, "tumor cell lines": {"system": "tumor cell lines", "assay": "NCI in vitro 60-cell line antitumor testing, GI50 pattern", "settings": "GI50 60-cell line pattern", "description": "as §1\nTable 2 depicts the GI50 mean bar graph for tumor cell lines, grouped into various categories (such as colon, breast, etc.) The data are arranged to display the relative response selectivity of each cell line relative to one other. This form of data display is used to examine the relative tumor specificity of a text compound. The curves represent the response of each tumor cell line when treated with compound 2.\nAntitumor agents with tumor-specific selectivity are highly desired, in order to reduce the incidence of non-selective cytotoxicity to patients. […] This is of special importance since this NCI/ADR-RES cell line is resistant to many currently used antitumor agents such as adriamycin, taxol, and others."}, "OVCAR-8": {"system": "OVCAR-8", "assay": "NCI in vitro cell line screen (SRB), Ovarian Cancer OVCAR-8", "description": "as §1"}, "[1]": {"settings": "Homo sapiens, read-out: LC50 (the source's name)"}}}
{"smiles": "COc1ccc([C@@H](O)[C@@H](C)Oc2ccc([C@H]3O[C@H](c4ccc(O[C@H](C)[C@H](O)c5ccc6c(c5)OCO6)c(OC)c4)[C@H](C)[C@H]3C)cc2OC)cc1OC", "note": "[Compound 2, manassantin B]", "values": [{"measurement": "TGI", "setting": "RXF 393", "result": ">1.00E−4", "unit": "Molar"}, {"measurement": "GI50", "setting": "RXF 393; Homo sapiens", "result": "> 100", "unit": "µM"}, {"measurement": "CC50", "setting": "RXF 393; [1]", "result": "> 100", "unit": "µM"}, {"measurement": "Mean Optical Densities", "setting": "RXF 393; Log10 Concentration −4.0 Molar", "result": 0.930}, {"measurement": "Percent Growth", "setting": "RXF 393; Log10 Concentration −4.0 Molar", "result": 53, "unit": "%"}, {"measurement": "Mean Optical Densities", "setting": "RXF 393; Log10 Concentration −5.0 Molar", "result": 0.993}, {"measurement": "Percent Growth", "setting": "RXF 393; Log10 Concentration −5.0 Molar", "result": 62, "unit": "%"}, {"measurement": "Mean Optical Densities", "setting": "RXF 393; Log10 Concentration −6.0 Molar", "result": 1.170}, {"measurement": "Percent Growth", "setting": "RXF 393; Log10 Concentration −6.0 Molar", "result": 85, "unit": "%"}, {"measurement": "Mean Optical Densities", "setting": "RXF 393; Log10 Concentration −7.0 Molar", "result": 1.267}, {"measurement": "Percent Growth", "setting": "RXF 393; Log10 Concentration −7.0 Molar", "result": 98, "unit": "%"}, {"measurement": "Mean Optical Densities", "setting": "RXF 393; Log10 Concentration −8.0 Molar", "result": 1.226}, {"measurement": "Percent Growth", "setting": "RXF 393; Log10 Concentration −8.0 Molar", "result": 92, "unit": "%"}, {"measurement": "TGI", "setting": "MDA-MB-435", "result": ">1.00E−4", "unit": "Molar"}, {"measurement": "GI50", "setting": "MDA-MB-435; Homo sapiens", "result": 1.88, "unit": "µM"}, {"measurement": "CC50", "setting": "MDA-MB-435; [1]", "result": "> 100", "unit": "µM"}, {"measurement": "Mean Optical Densities", "setting": "MDA-MB-435; Log10 Concentration −4.0 Molar", "result": 0.534}, {"measurement": "Percent Growth", "setting": "MDA-MB-435; Log10 Concentration −4.0 Molar", "result": 1, "unit": "%"}, {"measurement": "Mean Optical Densities", "setting": "MDA-MB-435; Log10 Concentration −5.0 Molar", "result": 0.605}, {"measurement": "Percent Growth", "setting": "MDA-MB-435; Log10 Concentration −5.0 Molar", "result": 10, "unit": "%"}, {"measurement": "Mean Optical Densities", "setting": "MDA-MB-435; Log10 Concentration −6.0 Molar", "result": 1.079}, {"measurement": "Percent Growth", "setting": "MDA-MB-435; Log10 Concentration −6.0 Molar", "result": 65, "unit": "%"}, {"measurement": "Mean Optical Densities", "setting": "MDA-MB-435; Log10 Concentration −7.0 Molar", "result": 1.179}, {"measurement": "Percent Growth", "setting": "MDA-MB-435; Log10 Concentration −7.0 Molar", "result": 77, "unit": "%"}, {"measurement": "Mean Optical Densities", "setting": "MDA-MB-435; Log10 Concentration −8.0 Molar", "result": 1.122}, {"measurement": "Percent Growth", "setting": "MDA-MB-435; Log10 Concentration −8.0 Molar", "result": 70, "unit": "%"}, {"measurement": "TGI", "setting": "UACC-62", "result": ">1.00E−4", "unit": "Molar"}, {"measurement": "GI50", "setting": "UACC-62; Homo sapiens", "result": 4.47, "unit": "µM"}, {"measurement": "CC50", "setting": "UACC-62; [1]", "result": "> 100", "unit": "µM"}, {"measurement": "Mean Optical Densities", "setting": "UACC-62; Log10 Concentration −4.0 Molar", "result": 0.573}, {"measurement": "Percent Growth", "setting": "UACC-62; Log10 Concentration −4.0 Molar", "result": 16, "unit": "%"}, {"measurement": "Mean Optical Densities", "setting": "UACC-62; Log10 Concentration −5.0 Molar", "result": 0.697}, {"measurement": "Percent Growth", "setting": "UACC-62; Log10 Concentration −5.0 Molar", "result": 35, "unit": "%"}, {"measurement": "Mean Optical Densities", "setting": "UACC-62; Log10 Concentration −6.0 Molar", "result": 0.971}, {"measurement": "Percent Growth", "setting": "UACC-62; Log10 Concentration −6.0 Molar", "result": 78, "unit": "%"}, {"measurement": "Mean Optical Densities", "setting": "UACC-62; Log10 Concentration −7.0 Molar", "result": 1.072}, {"measurement": "Percent Growth", "setting": "UACC-62; Log10 Concentration −7.0 Molar", "result": 93, "unit": "%"}, {"measurement": "Mean Optical Densities", "setting": "UACC-62; Log10 Concentration −8.0 Molar", "result": 1.038}, {"measurement": "Percent Growth", "setting": "UACC-62; Log10 Concentration −8.0 Molar", "result": 88, "unit": "%"}, {"measurement": "TGI", "setting": "HL-60(TB)", "result": ">1.00E−4", "unit": "Molar"}, {"measurement": "GI50", "setting": "HL-60(TB); Homo sapiens", "result": "> 100", "unit": "µM"}, {"measurement": "CC50", "setting": "HL-60(TB); [1]", "result": "> 100", "unit": "µM"}, {"measurement": "Mean Optical Densities", "setting": "HL-60(TB); Log10 Concentration −4.0 Molar", "result": 0.426}, {"measurement": "Percent Growth", "setting": "HL-60(TB); Log10 Concentration −4.0 Molar", "result": 58, "unit": "%"}, {"measurement": "Mean Optical Densities", "setting": "HL-60(TB); Log10 Concentration −5.0 Molar", "result": 0.491}, {"measurement": "Percent Growth", "setting": "HL-60(TB); Log10 Concentration −5.0 Molar", "result": 76, "unit": "%"}, {"measurement": "Mean Optical Densities", "setting": "HL-60(TB); Log10 Concentration −6.0 Molar", "result": 0.555}, {"measurement": "Percent Growth", "setting": "HL-60(TB); Log10 Concentration −6.0 Molar", "result": 93, "unit": "%"}, {"measurement": "Mean Optical Densities", "setting": "HL-60(TB); Log10 Concentration −7.0 Molar", "result": 0.543}, {"measurement": "Percent Growth", "setting": "HL-60(TB); Log10 Concentration −7.0 Molar", "result": 90, "unit": "%"}, {"measurement": "Mean Optical Densities", "setting": "HL-60(TB); Log10 Concentration −8.0 Molar", "result": 0.469}, {"measurement": "Percent Growth", "setting": "HL-60(TB); Log10 Concentration −8.0 Molar", "result": 70, "unit": "%"}, {"measurement": "selectivity for tumor cell lines", "setting": "tumor cell lines", "result": "up to 10,000 fold"}, {"measurement": "TGI", "setting": "OVCAR-8", "result": ">1.00E−4", "unit": "Molar"}, {"measurement": "GI50", "setting": "OVCAR-8; Homo sapiens", "result": 23.7, "unit": "µM"}, {"measurement": "CC50", "setting": "OVCAR-8; [1]", "result": "> 100", "unit": "µM"}, {"measurement": "Mean Optical Densities", "setting": "OVCAR-8; Log10 Concentration −4.0 Molar", "result": 0.873}, {"measurement": "Percent Growth", "setting": "OVCAR-8; Log10 Concentration −4.0 Molar", "result": 46, "unit": "%"}, {"measurement": "Mean Optical Densities", "setting": "OVCAR-8; Log10 Concentration −5.0 Molar", "result": 0.952}, {"measurement": "Percent Growth", "setting": "OVCAR-8; Log10 Concentration −5.0 Molar", "result": 53, "unit": "%"}, {"measurement": "Mean Optical Densities", "setting": "OVCAR-8; Log10 Concentration −6.0 Molar", "result": 1.298}, {"measurement": "Percent Growth", "setting": "OVCAR-8; Log10 Concentration −6.0 Molar", "result": 82, "unit": "%"}, {"measurement": "Mean Optical Densities", "setting": "OVCAR-8; Log10 Concentration −7.0 Molar", "result": 1.092}, {"measurement": "Percent Growth", "setting": "OVCAR-8; Log10 Concentration −7.0 Molar", "result": 65, "unit": "%"}, {"measurement": "Mean Optical Densities", "setting": "OVCAR-8; Log10 Concentration −8.0 Molar", "result": 1.311}]}
